The values below come from patent US12649735B2 (HAIHE BIOPHARMA CO., LTD., priority 2019, dated 2026).

SMILES strings stand for the structures.

The target of assay [1] is T1, bromodomain protein BRD4 BD1 (Homo sapiens, UniProt O60885).
T1 construct: The proteins BRD4 BD1/BD2 used in the experiment were purchased from Active Motif Company (Cat. No. 31380/31446); purchased Active Motif 31380
Kind of assay: HTRF in vitro assay, inhibitory activity against BRD4 BD1. Type of assay: binding. Conditions: BRD4(1) 30 nM in final system. The procedure: In this example, the half inhibitory activity (IC50) of the compounds of the present invention against the bromodomain protein BRD4 BD1 was determined.
(§1) The inhibitory activity of the compound against BRD4 BD1 was determined by using Homogeneous Time-Resolved Fluorescence (HTRF).
(§2) The proteins BRD4 BD1/BD2 used in the experiment were purchased from Active Motif Company (Cat. No. 31380/31446); Streptavidin XL-665 (#610SAXLA) and EPIgeneous Binding Domain Kit A (#62BDAPEG) were purchased from Cisbio Bioassays Company, [Lys(5,8,12,16)Ac]H4(1-21)-biotin (#64989), and [Lys(5,8,12,16)Ac]H4(1-25) were products of AnaSpec company; OTX015 and ABBV-075 were purchased from SelleckChem. 384 Well ProxiPlate (#6008280) was purchased from PerkinElmer. The multifunctional microplate reader used for the experimental was a product of PerkinElmer, model: Envision 2104. The experimental water was Millipore-Q pure water.
(§3) 10 mM of stock solution of compound in DMSO was diluted to 1 mM with DMSO and stored, and then diluted 10 times with Binding Domain dilution buffer (purchased from Cisbio Bioassays) for use (the concentration of DMSO in the final system was […]), 1:5 gradient dilution, a total of 5 concentrations.
(§4) 4. Test Method: 1 Batch, 2 Duplicate Wells
(§5) • 1) 5 μL of test compound was transferred to 45 μL of Binding Domain dilution buffer. • 2) 2 μL of 10× compound (4 μL Binding Domain dilution buffer: positive control; 6 μL enzyme buffer (purchased from Cisbio Bioassays): negative control) was transferred to the reaction plate. • 3) 4 μL of 5×BRD4(1) or BRD4(2) (30 nM in final system) was added to the reaction plate. • 4) 4 μL of 5×[Lys(5,8,12,16)Ac]H4(1-21)-biotin was added to the reaction plate, and the plate was covered with a film, and incubated at 37° C. for 30 min. • 5) A detection mixture of SA-XL665 (2×) and anti-H3K9me0-Eu(K) (2×) was prepared in detection buffer (purchased from Cisbio Bioassays). • 6) 10 μL of detection mixture (2×) was added to each well, and incubated for 3 h at room temperature, and the mp value was read using a multi-plate reader Envision. The parameters were set as follows.
(In general: In TR-FRET formats the signal depends on donor and acceptor labels being close together.)

The target of assay [2] is T2, bromodomain protein BRD4 BD2 (Homo sapiens, UniProt O60885).
T2 construct: The proteins BRD4 BD1/BD2 used in the experiment were purchased from Active Motif Company (Cat. No. 31380/31446); purchased Active Motif 31446
Kind of assay: HTRF in vitro assay, inhibitory activity against BRD4 BD2. Type of assay: binding. Conditions: BRD4(2) 30 nM in final system. The procedure: as §1, §2, §3, §4, §5

On to `CCNC(=O)c1cc2c(-c3cc(CO)c4ccccc4c3C3CC3)cn(C)c(=O)c2[nH]1` [Compound A32, 4-(1-cyclopropyl-4-(hydroxymethyl)naphthalen-2-yl)-N-ethyl-6-methyl-7-oxo-6,7-dihydro-1H-pyrrolo[2,3-c]pyridin-2-carboxamide], for which the IC50 (usually the concentration that inhibits the measured activity by half) in assay [1] is 10 to 100 nM; in assay [2], not above 10 nM.

As for `CCNC(=O)c1cc2c(-c3cn(C)nc3C(C)c3ccccc3)cn(C)c(=O)c2[nH]1` (centres unmarked) [Compound A33, N-ethyl-6-methyl-4-(1-methyl-3-(1-phenylethyl)-1H-pyrazol-4-yl)-7-oxo-6,7-dihydro-1H-pyrrolo[2,3c]pyridin-2-carboxamide], the IC50 in assay [1] is 100 to 1000 nM; in assay [2], 10 to 100 nM.

Take `CCNC(=O)c1cc2c(-c3c(C4CC4)nn(C)c3C3CC3)cn(C)c(=O)c2[nH]1` [Compound A34, 4-(3,5-dicyclopropyl-1-methyl-1H-pyrazol-4-yl)-N-ethyl-6-methyl-7-oxo-6,7-dihydro-1H-pyrrolo[2,3-c]pyridin-2-carboxamide]: the half-maximal inhibitory concentration (IC50) lay within 100 to 1000 nM in assay [1] and 10 to 100 nM in assay [2].

Turning to `CCNC(=O)c1cc2c(-c3c(C(=O)NCC)cnn3C(C)c3ccccc3)cn(C)c(=O)c2[nH]1` (centres unmarked) [Compound A35, N-ethyl-4-(4-(ethylcarbamoyl)-1-(1-phenylethyl)-1H-pyrazol-5-yl)-6-methyl-7-oxo-6,7-dihydro-1H-pyrrolo[2,3-c]pyridin-2-carboxamide], the IC50 in assay [1] lay in the range of 100 to 1000 nM; in assay [2], 10 to 100 nM.

For `CCNC(=O)c1cc2c(-c3nc(CO)cn3-c3ccc(C)cc3)cn(C)c(=O)c2[nH]1` [Compound A36, N-ethyl-4-(4-(hydroxymethyl)-1-(p-tolyl)-1H-imidazol-2-yl)-6-methyl-7-oxo-6,7-dihydro-1H-pyrrolo[2,3-c]pyridin-2-carboxamide], the values for the IC50 in assay [1] and in assay [2] were 100 to 1000 nM and 10 to 100 nM, respectively.

As for `CCNC(=O)c1cc2c(-c3cc(C(C)=O)c4cccnc4c3OC)cn(C)c(=O)c2[nH]1` [Compound A37, 4-(5-acetyl-8-methoxyquinolin-7-yl)-N-ethyl-6-methyl-7-oxo-6,7-dihydro-1H-pyrrolo[2,3-c]pyridin-2-carboxamide], the figures for the IC50 in assay [1] and in assay [2] were 100 to 1000 nM and 10 to 100 nM, respectively.

Take `COc1ccc(C(c2ccccc2)c2cn(C)c(=O)c3[nH]c(C(=O)Nc4cnn(C)c4)cc23)cc1` (centres unmarked) [Compound A38, 4-((4-methoxyphenyl)(phenyl)methyl)-6-methyl-N-(1-methyl-1H-pyrazol-4-yl)-7-oxo-6,7-dihydro-1H-pyrrolo[2,3-c]pyridin-2-carboxamide]: the figures for the IC50 in assay [1] and in assay [2] were 100 to 1000 nM and 10 to 100 nM, respectively.

With `CCNC(=O)c1cc2c(C(O)c3ccc4c(ccn4C)c3)cn(C)c(=O)c2[nH]1` (centres unmarked) [Compound A39, N-ethyl-4-(hydroxy(1-methyl-1H-indol-5-yl)methyl)-6-methyl-7-oxo-6,7-dihydro-1H-pyrrolo[2,3-c]pyridin-2-carboxamide], the values for the IC50 in assay [1] and in assay [2] were 100 to 1000 nM and 10 to 100 nM, respectively.

As for `CCNC(=O)c1cc2c(-c3cc(C(C)(C)O)c4cccnc4c3C)cn(C)c(=O)c2[nH]1` [Compound A40, N-ethyl-4-(5-(2-hydroxypropan-2-yl)-8-methylquinolin-7-yl)-6-methyl-7-oxo-6,7-dihydro-1H-pyrrolo[2,3-c]pyridin-2-carboxamide], the half-maximal inhibitory concentration (IC50) in assay [1] is 10 to 100 nM; in assay [2] it was not above 10 nM.

Take `CC(c1ccccc1)c1cn(C)c(=O)c2cc(-c3cn(C)nc3[N+](=O)[O-])sc12` (centres unmarked) [Compound A41, 5-methyl-2-(1-methyl-3-nitro-1H-pyrazol-4-yl)-7-(1-phenylethyl)thieno[3,2-c]pyridin-4(5H)-one]: the IC50 in assay [1] and in assay [2] was 100 to 1000 nM in each case.

Turning to `CC(c1ccccc1)c1cn(C)c(=O)c2cc(-c3cn(C)nc3N)sc12` (centres unmarked) [Compound A42, 2-(3-amino-1-methyl-1H-pyrazol-4-yl)-5-methyl-7-(1-phenylethyl)thieno[3,2-c]pyridin-4(5H)-one], the figures for the IC50 in assay [1] and in assay [2] were 100 to 1000 nM and 10 to 100 nM, respectively.

`COC(c1ccccc1)c1cn(C)c(=O)c2[nH]c(-c3cnn(C)c3)cc12` (centres unmarked) [Compound A43, 4-(methoxy(phenyl)methyl)-6-methyl-2-(1-methyl-1H-pyrazol-4-yl)-1,6-dihydro-7H-pyrrolo[2,3-c]pyridin-7-one]: the IC50 was 100 to 1000 nM in assay [1] and 10 to 100 nM in assay [2].

Regarding `Cn1cc(-c2cc3c(C(O)c4ccccc4)cn(C)c(=O)c3[nH]2)cn1` (centres unmarked) [Compound A44], the IC50 in assay [1] is 100 to 1000 nM; in assay [2], 10 to 100 nM.

As to `CC(c1ccccc1)c1cn(C)c(=O)c2[nH]c(-c3cncnc3)cc12` (centres unmarked) [Compound A45], the figures for the 50% inhibitory concentration (IC50) in assay [1] and in assay [2] were 10 to 100 nM and not above 10 nM, respectively.

Turning to `CC(c1ccccc1)c1cn(C)c(=O)c2[nH]c(-c3ccoc3)cc12` (centres unmarked) [Compound A46], the results for the IC50 in assay [1] and in assay [2] were 10 to 100 nM and not above 10 nM, respectively.

For `CC(c1ccccc1)c1cn(C)c(=O)c2[nH]c(-c3c[nH]cn3)cc12` (centres unmarked) [Compound A47], the IC50 in assay [1] is 10 to 100 nM; in assay [2], not above 10 nM.

Take `Cc1ccc(C2CCC(=O)N2c2cn(C)c(=O)c3[nH]c(-c4cnn(C)c4)cc23)cc1` (centres unmarked) [Compound A48, 6-methyl-2-(1-methyl-1H-pyrazol-4-yl)-4-(2-oxo-5-(p-tolyl)pyrrolidin-1-yl)-1,6-dihydro-7H-pyrrolo[2,3-c]pyridin-7-one]: the IC50 in assay [1] was in the range of 100 to 1000 nM; in assay [2], 10 to 100 nM.

`Cc1cc(C)cc(-n2c(-c3cn(C)c(=O)c4[nH]c(-c5cnn(C)c5)cc34)nc3ncccc32)c1` [Compound A49, 4-(1-(3,5-dimethylphenyl)-1H-imidazo[4,5-b]pyridin-2-yl)-6-methyl-2-(1-methyl-1H-pyrazol-4-yl)-1,6-di hydro-7H-pyrrolo[2,3-c]pyridin-7-one]: the IC50 was 10 to 100 nM in assay [1] and not above 10 nM in assay [2].

Consider `Cc1ccc(-n2c(-c3cn(C)c(=O)c4[nH]c(-c5cnn(C)c5)cc34)nc3ncccc32)cc1` [Compound A50], for which the IC50 in assay [1] and in assay [2] was 10 to 100 nM throughout.

Consider `Cc1cc(C)cc(-n2c(-c3cn(C)c(=O)c4[nH]c(C(=O)Nc5ccn(C)n5)cc34)nc3ncccc32)c1` [Compound A51], for which the IC50 in assay [1] was 10 to 100 nM; in assay [2] it was not above 10 nM.

`Cc1cc(F)cc(C)c1-n1c(-c2cn(C)c(=O)c3[nH]c(C(=O)Nc4ccn(C)n4)cc23)nc2ncccc21` [Compound A52]: the concentration for half-maximal inhibition (IC50) in assay [1] is 10 to 100 nM; in assay [2], not above 10 nM.

Take `Cn1ccc(NC(=O)c2cc3c(-c4nc5ncccc5n4-c4ccccc4)cn(C)c(=O)c3[nH]2)n1` [Compound A53]: the IC50 in assay [1] was 100 to 1000 nM; in assay [2] it was 10 to 100 nM.

Consider `Cc1ccc(C2CCC(=O)N2c2cn(C)c(=O)c3[nH]c(C(=O)Nc4cn[nH]c4)cc23)cc1` (centres unmarked) [Compound A54], for which the results for the IC50 in assay [1] and in assay [2] were 100 to 1000 nM and 10 to 100 nM, respectively.

On to `Cc1ccc(C2c3ccccc3C(=O)N2c2cn(C)c(=O)c3[nH]c(C(=O)Nc4cn[nH]c4)cc23)cc1` (centres unmarked) [Compound A55], for which the concentration for half-maximal inhibition (IC50) lay within 100 to 1000 nM in assay [1] and 10 to 100 nM in assay [2].

Take `Cc1ccc(-c2cn(C)nc2-c2cn(C)c(=O)c3[nH]c(C(=O)Nc4cn[nH]c4)cc23)cc1` [Compound A56, 6-methyl-4-(1-methyl-4-(p-tolyl)-1H-pyrazol-3-yl)-7-oxo-N-(1H-pyrazol-4-yl)-6,7-dihydro-1H-pyrrolo[2,3-c]pyridin-2-carboxamide]: the results for the concentration for half-maximal inhibition (IC50) in assay [1] and in assay [2] were 100 to 1000 nM and 10 to 100 nM, respectively.

With `CC(c1ccccc1)c1cn(C)c(=O)c2cc(-c3n[nH]cc3N)oc12` (centres unmarked) [Compound A58, 2-(4-amino-1H-pyrazol-3-yl)-5-methyl-7-(1-phenethyl)furo[3,2-c]pyridin-4(5H)-one], the IC50 was 100 to 1000 nM in assay [1] and not above 10 nM in assay [2].

Regarding `CC(c1ccccc1)c1cn(C)c(=O)c2cc(-c3cnn(C4COC4)c3)oc12` (centres unmarked) [Compound A59, 5-methyl-2-(1-(oxetan-3-yl)-1H-pyrazol-4-yl)-7-(1-phenethyl)furo[3,2-c]pyridin-4(5H)-one], the IC50 in assay [1] lay in the range of 100 to 1000 nM; in assay [2] it was 10 to 100 nM.

In the case of `CC(c1ccccc1)c1cn(C)c(=O)c2c(C(=O)O)c(-c3cnn(C)c3)oc12` (centres unmarked) [Compound A60, 5-methyl-2-(1-methyl-1H-pyrazol-4-yl)-4-oxo-7-(1-phenethyl)-4,5-dihydrofuro[3,2-c]pyridin-3-carboxylic acid], the values for the IC50 in assay [1] and in assay [2] were 100 to 1000 nM and 10 to 100 nM, respectively.
